Results: patent publication US12286429B2, “5-oxo-1,2,3,5,8,8a-hexahydroindolizine-3-carboxamide derivatives useful as a factor XIa inhibitors” (Janssen Pharmaceutica NV, priority 2021, dated 2025)

Tests used:
[1] = molecular target: human plasma kallikrein (Homo sapiens, UniProt P03952); assay: Kallikrein inhibition assay utilizing a quenched AMC peptide substrate (FLINT); assay type: biochemical; settings: 11-point, 3-fold serial dilution, top 1 μM; 30 min preincubation; 2 nM kallikrein; 50 μM Z-Gly-Pro-Arg-AMC; kinetic reads over 30 min
Summary of the method: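 Human plasma kallikrein (2 nM final) was pre-incubated 30 min at room temperature with compound (11-point 3-fold series, top 1 μM, 2% DMSO) in Tris pH 7.5, NaCl, CaCl2, BSA, CHAPS buffer. Reaction started with 50 μM Z-Gly-Pro-Arg-AMC (KM 40 μM), and fluorescence (340/440 nm) was read kinetically over 30 min. IC50 came from a 4-parameter logistic fit.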

[2] = molecular target: Factor XIa (Homo sapiens, UniProt P03951); assay: Factor XIa inhibition assay utilizing a fluorophore-quencher pair peptide substrate (FLINT); assay type: biochemical; settings: 11-point, 3-fold serial dilution, top 100 nM; 30 min preincubation; 15 μM 5Fam-KLTRAETV-K5Tamra substrate; kinetic reads over 30 min; read-out: FXIa Inhibition IC50
Summary of the method: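 FXIa ([…]) preincubated 30 min with compound (11-point, 3-fold, top 100 nM, 2% DMSO) in Tris pH 7.5, NaCl, CaCl2, BSA, CHAPS; 15 μM 5Fam-KLTRAETV-K5Tamra substrate then added. Fluorescence (485/520 nm) read kinetically over 30 min at room temperature; IC50 by 4-parameter fit.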

Sequence of human plasma kallikrein (P03952 391-638 limits assumed): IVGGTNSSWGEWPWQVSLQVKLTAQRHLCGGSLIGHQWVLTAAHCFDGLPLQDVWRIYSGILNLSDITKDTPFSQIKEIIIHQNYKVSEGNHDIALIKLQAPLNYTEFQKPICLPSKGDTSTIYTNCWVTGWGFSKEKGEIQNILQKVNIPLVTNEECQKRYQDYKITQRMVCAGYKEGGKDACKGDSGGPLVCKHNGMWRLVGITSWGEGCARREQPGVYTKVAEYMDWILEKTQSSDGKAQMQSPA
Sequence of human plasma kallikrein (P03952 20-390 partner limits assumed): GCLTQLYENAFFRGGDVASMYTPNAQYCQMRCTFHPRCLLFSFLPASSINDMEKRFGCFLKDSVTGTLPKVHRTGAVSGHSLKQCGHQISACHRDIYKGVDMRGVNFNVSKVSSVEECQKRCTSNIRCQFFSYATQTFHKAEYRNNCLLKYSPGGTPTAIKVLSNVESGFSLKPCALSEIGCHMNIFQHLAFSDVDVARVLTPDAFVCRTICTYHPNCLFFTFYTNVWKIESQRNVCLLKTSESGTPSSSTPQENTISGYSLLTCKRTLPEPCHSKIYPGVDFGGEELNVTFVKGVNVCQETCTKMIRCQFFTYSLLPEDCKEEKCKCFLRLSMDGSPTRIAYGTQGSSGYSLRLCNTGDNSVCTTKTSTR
Sequence of Factor XIa (P03951 388-625 limits assumed): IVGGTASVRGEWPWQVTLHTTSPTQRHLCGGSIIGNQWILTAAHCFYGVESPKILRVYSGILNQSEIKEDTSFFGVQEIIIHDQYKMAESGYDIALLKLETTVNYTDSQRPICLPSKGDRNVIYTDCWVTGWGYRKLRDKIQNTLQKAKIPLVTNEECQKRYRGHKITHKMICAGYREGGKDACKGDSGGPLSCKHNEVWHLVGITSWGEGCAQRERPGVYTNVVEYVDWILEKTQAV
Sequence of Factor XIa (P03951 19-387 partner limits assumed): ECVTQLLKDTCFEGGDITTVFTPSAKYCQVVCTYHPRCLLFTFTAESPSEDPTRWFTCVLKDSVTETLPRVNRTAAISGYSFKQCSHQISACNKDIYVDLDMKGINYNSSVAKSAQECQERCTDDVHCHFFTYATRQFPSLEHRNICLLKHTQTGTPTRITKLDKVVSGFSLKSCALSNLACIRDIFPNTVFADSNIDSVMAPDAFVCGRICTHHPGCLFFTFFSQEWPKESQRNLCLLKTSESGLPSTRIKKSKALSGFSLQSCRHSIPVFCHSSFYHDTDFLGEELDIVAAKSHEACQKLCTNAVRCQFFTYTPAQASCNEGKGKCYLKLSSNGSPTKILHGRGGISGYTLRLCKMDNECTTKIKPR

Row | SMILES | IC50 [1] [nM] | IC50 [2] [nM]
1 | CC1(C)C[C@@H](C(=O)Nc2ccc3nccnc3c2)N2C(=O)C=C(c3c(-n4cnnn4)ccc(Cl)c3F)CC21 (single isomer, unassigned) [ID No. 59, (3S,8aR*)-7-[3-Chloro-2-fluoro-6-(tetrazol-1-yl)phenyl]-1,1-dimethyl-5-oxo-N-quinoxalin-6-yl-2,3,8,8a-tetrahydroindolizine-3-carboxamide] | 38.8 | 82.9
2 | Nc1noc2cc(NC(=O)[C@@H]3CCC4CC(c5c(-n6cnnn6)ccc(Cl)c5F)=CC(=O)N43)ccc12 (single isomer, unassigned) [ID No. 60, (3S,8aR*)—N-(3-Amino-1,2-benzoxazol-6-yl)-7-[3-chloro-2-fluoro-6-(tetrazol-1-yl)phenyl]-5-oxo-2,3,8,8a-tetrahydro-1H-indolizine-3-carboxamide] | 29.7 | 6.7
3 | Nc1ccc2cc(NC(=O)[C@@H]3CC[C@@H]4CC(c5c(-n6cnnn6)ccc(Cl)c5F)=CC(=O)N43)ccc2n1 [ID No. 6, (3S,8aR)—N-(2-Aminoquinolin-6-yl)-7-(3-chloro-2-fluoro-6-(1H-tetrazol-1-yl)phenyl)-5-oxo-1,2,3,5,8,8a-hexahydroindolizine-3-carboxamide] | 14.3 | 8
4 | CC1(C)C(=O)Nc2ccc(NC(=O)[C@@H]3CC[C@@H]4CC(c5c(-n6cnnn6)ccc(Cl)c5F)=CC(=O)N43)cc21 [ID No. 7, (3S,8aR)-7-(3-Chloro-2-fluoro-6-(1H-tetrazol-1-yl)phenyl)-N-(3,3-dimethyl-2-oxoindolin-5-yl)-5-oxo-1,2,3,5,8,8a-hexahydroindolizine-3-carboxamide] | 131 | 65
5 | O=C(Nc1ccc2c(c1)C1(CCCC1)C(=O)N2)[C@@H]1CC[C@@H]2CC(c3c(-n4cnnn4)ccc(Cl)c3F)=CC(=O)N21 [ID No. 8, (3S,8aR)-7-(3-Chloro-2-fluoro-6-(1H-tetrazol-1-yl)phenyl)-5-oxo-N-(2′-oxospiro[cyclopentane-1,3′-indolin]-5′-yl)-1,2,3,5,8,8a-hexahydroindolizine-3-carboxamide] | 178 | 62.1
6 | O=C(Nc1ccc2nccc(O)c2c1)[C@@H]1CC[C@@H]2CC(c3c(-n4cnnn4)ccc(Cl)c3F)=CC(=O)N21 [ID No. 9, (3S,8aR)-7-(3-Chloro-2-fluoro-6-(1H-tetrazol-1-yl)phenyl)-N-(4-hydroxyquinolin-6-yl)-5-oxo-1,2,3,5,8,8a-hexahydroindolizine-3-carboxamide] | 20.2 | 16.6
7 | O=C(Nc1ccc2ncc(F)cc2c1)[C@@H]1CC[C@@H]2CC(c3c(-n4cnnn4)ccc(Cl)c3F)=CC(=O)N21 [ID No. 10, (3S,8aR)-7-(3-Chloro-2-fluoro-6-(1H-tetrazol-1-yl)phenyl)-N-(3-fluoroquinolin-6-yl)-5-oxo-1,2,3,5,8,8a-hexahydroindolizine-3-carboxamide] | 22.5 | 10.8
8 | CN(C)c1ccc2cc(NC(=O)[C@@H]3CC[C@@H]4CC(c5c(-n6cnnn6)ccc(Cl)c5F)=CC(=O)N43)ccc2n1 [ID No. 11, (3S,8aR)-7-(3-Chloro-2-fluoro-6-(1H-tetrazol-1-yl)phenyl)-N-(2-(dimethylamino)quinolin-6-yl)-5-oxo-1,2,3,5,8,8a-hexahydroindolizine-3-carboxamide] | 66.2 | 38.8
9 | O=C1Cc2cc(NC(=O)[C@@H]3CC[C@@H]4CC(c5c(-n6cnnn6)ccc(Cl)c5F)=CC(=O)N43)ccc2N1 [ID No. 12, (3S,8aR)-7-(3-Chloro-2-fluoro-6-(1H-tetrazol-1-yl)phenyl)-5-oxo-N-(2-oxoindolin-5-yl)-1,2,3,5,8,8a-hexahydroindolizine-3-carboxamide] | 71.7 | 18.2
10 | O=C1CCc2cc(NC(=O)[C@@H]3CC[C@@H]4CC(c5c(-n6cnnn6)ccc(Cl)c5F)=CC(=O)N43)ccc2N1 [ID No. 13] | 68.4 | 12.9
11 | CCn1cnc2ccc(NC(=O)[C@@H]3CC[C@@H]4CC(c5c(-n6cnnn6)ccc(Cl)c5F)=CC(=O)N43)cc2c1=O [ID No. 14, (3S,8aR)-7-(3-Chloro-2-fluoro-6-(1H-tetrazol-1-yl)phenyl)-N-(3-ethyl-4-oxo-3,4-dihydroquinazolin-6-yl)-5-oxo-1,2,3,5,8,8a-hexahydroindolizine-3-carboxamide] | 59.6 | 22.7

The next lines start with the values.

Row | IC50 [1] [nM] | IC50 [2] [nM] | SMILES
12 | 52.6 | 8.9 | Nc1noc2cc(NC(=O)[C@@H]3CCC4CC(c5c(-n6cnnn6)ccc(Cl)c5F)=CC(=O)N43)ccc12 (single isomer, unassigned) [ID No. 61, (3S,8aS*)—N-(3-Amino-1,2-benzoxazol-6-yl)-7-[3-chloro-2-fluoro-6-(tetrazol-1-yl)phenyl]-5-oxo-2,3,8,8a-tetrahydro-1H-indolizine-3-carboxamide]
13 | 17.2 | 13.3 | CC1(C)C[C@@H](C(=O)Nc2ccc3nccnc3c2)N2C(=O)C=C(c3c(-n4cnnn4)ccc(Cl)c3F)CC21 (single isomer, unassigned) [ID No. 62, (3S,8aS*)-7-[3-Chloro-2-fluoro-6-(tetrazol-1-yl)phenyl]-1,1-dimethyl-5-oxo-N-quinoxalin-6-yl-2,3,8,8a-tetrahydroindolizine-3-carboxamide]
14 | 20.3 | 0.6 | O=C(Nc1ccc(-c2nc(=O)o[nH]2)cc1)[C@@H]1CCC2CC(c3c(-n4cnnn4)ccc(Cl)c3F)=CC(=O)N21 (single isomer, unassigned) [ID No. 63, (3S,8aR*)-7-[3-Chloro-2-fluoro-6-(tetrazol-1-yl)phenyl]-5-oxo-N-[4-(5-oxo-2H-1,2,4-oxadiazol-3-yl)phenyl]-2,3,8,8a-tetrahydro-1H-indolizine-3-carboxamide]
15 | 36.6 | 1.9 | O=C(Nc1ccc(-c2nnn[nH]2)cc1)[C@@H]1CC[C@H]2CC(c3c(-n4cnnn4)ccc(Cl)c3F)=CC(=O)N21 (single isomer, unassigned) [ID No. 65, (3S,8aS*)-7-[3-Chloro-2-fluoro-6-(tetrazol-1-yl)phenyl]-5-oxo-N-[4-(1H-tetrazol-5-yl)phenyl]-2,3,8,8a-tetrahydro-1_H-indolizine-3-carboxamide]
16 | 19.2 | 0.8 | O=C(Nc1ccc(-c2nnn[nH]2)cc1)[C@@H]1CCC2CC(c3c(-n4cnnn4)ccc(Cl)c3F)=CC(=O)N21 (single isomer, unassigned) [ID No. 66, (3S,8aR*)-7-[3-Chloro-2-fluoro-6-(tetrazol-1-yl)phenyl]-5-oxo-N-[4-(1H-tetrazol-5-yl)phenyl]-2,3,8,8a-tetrahydro-1H-indolizine-3-carboxamide]
17 | 7.5 | 3.9 | C[C@H]1C[C@@H](C(=O)Nc2ccc3nccnc3c2)N2C(=O)C=C(c3c(-n4cnnn4)ccc(Cl)c3F)C[C@@H]12 (single isomer, unassigned) [ID No. 79, (1S*,3S,8aS*)-7-[3-Chloro-2-fluoro-6-(tetrazol-1-yl)phenyl]-1-methyl-5-oxo-N-quinoxalin-6-yl-2,3,8,8a-tetrahydro-1H-indolizine-3-carboxamide]
18 | 59.5 | 45.9 | C[C@H]1C[C@@H](C(=O)Nc2ccc3nccnc3c2)N2C(=O)C=C(c3c(-n4cnnn4)ccc(Cl)c3F)C[C@H]12 (single isomer, unassigned) [ID No. 80, (1S*,3S,8aR*)-7-[3-Chloro-2-fluoro-6-(tetrazol-1-yl)phenyl]-1-methyl-5-oxo-N-quinoxalin-6-yl-2,3,8,8a-tetrahydro-1H-indolizine-3-carboxamide]
